Tested on: KRAS patient-derived spheroids with HUVEC/MSC, viability
Assay: Anticancer human tumor 941728-121-R-J1-PDC patient-derived lung adenocarcinoma cell line growth inhibition [KRAS2]
Conditions: for viability, T/C: stronger effect = lower value
Summary of the method: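 Combination screen of spheroid viability in tumor-cell co-cultures with endothelial (HUVEC) and mesenchymal stem cell stroma. Each agent was tested in half-log dilutions, topping at clinical Cmax or at 10 microM without a known Cmax.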

[1] = curve of first compound, second compound 0.1 µM
[2] = curve of first compound, second compound 0.316 µM
[3] = curve of first compound, second compound 1 µM
[4] = curve of first compound, second compound 3.16 µM
[5] = curve of first compound, second compound 10 µM
[6] = second compound 0.1 µM, first compound 0.0316 µM
[7] = second compound 0.1 µM, first compound 0.1 µM
[8] = second compound 0.1 µM, first compound 0.316 µM
[9] = second compound 0.1 µM, first compound 1 µM
[10] = second compound 0.1 µM, first compound 3.16 µM
[11] = second compound 0.1 µM, first compound 10 µM
[12] = second compound 0.316 µM, first compound 0.0316 µM
[13] = second compound 0.316 µM, first compound 0.1 µM
[14] = second compound 0.316 µM, first compound 0.316 µM
[15] = second compound 0.316 µM, first compound 1 µM
[16] = second compound 0.316 µM, first compound 3.16 µM
[17] = second compound 0.316 µM, first compound 10 µM
[18] = second compound 1 µM, first compound 0.0316 µM
[19] = second compound 1 µM, first compound 0.1 µM
[20] = second compound 1 µM, first compound 0.316 µM
[21] = second compound 1 µM, first compound 1 µM
[22] = second compound 1 µM, first compound 3.16 µM
[23] = second compound 1 µM, first compound 10 µM
[24] = second compound 3.16 µM, first compound 0.0316 µM
[25] = second compound 3.16 µM, first compound 0.1 µM
[26] = second compound 3.16 µM, first compound 0.316 µM
[27] = second compound 3.16 µM, first compound 1 µM
[28] = second compound 3.16 µM, first compound 3.16 µM
[29] = second compound 3.16 µM, first compound 10 µM
[30] = second compound 10 µM, first compound 0.0316 µM
[31] = second compound 10 µM, first compound 0.1 µM
[32] = second compound 10 µM, first compound 0.316 µM
[33] = second compound 10 µM, first compound 1 µM
[34] = second compound 10 µM, first compound 3.16 µM
[35] = second compound 10 µM, first compound 10 µM
[36] = second compound 0.1 µM, first compound 0.01 µM
[37] = second compound 0.316 µM, first compound 0.01 µM
[38] = second compound 1 µM, first compound 0.01 µM
[39] = second compound 3.16 µM, first compound 0.01 µM
[40] = second compound 10 µM, first compound 0.01 µM
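Further: spheroids exposed to agents for seven days before readout.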

Compound	IC50 [1] [nM]	IC50 [2] [nM]	IC50 [3] [nM]	IC50 [4] [nM]	IC50 [5] [nM]	viability, T/C [6] [%]	viability, T/C [7] [%]	viability, T/C [8] [%]	viability, T/C [9] [%]	viability, T/C [12] [%]	viability, T/C [13] [%]	viability, T/C [14] [%]	viability, T/C [15] [%]	viability, T/C [18] [%]	viability, T/C [19] [%]	viability, T/C [20] [%]	viability, T/C [21] [%]	viability, T/C [24] [%]	viability, T/C [25] [%]	viability, T/C [26] [%]	also measured
CC1(C)CCC(CN2CCN(c3ccc(C(=O)NS(=O)(=O)c4ccc(NCC5CCOCC5)c([N+](=O)[O-])c4)c(Oc4cnc5[nH]ccc5c4)c3)CC2)=C(c2ccc(Cl)cc2)C1 + CNCc1ccccc1-c1csc(C(C)Nc2nc(C)nc3cc(OC)c(OC)cc23)c1	< 31.6	< 31.6	< 31.6	< 31.6	< 31.6	41.7	41.8	41.4	39.2	39.8	36	33.4	35.1	27	31.7	23.2	22.6	0.19	0.17	0.27	viability, T/C [10]: 6.99%; viability, T/C [11]: 4.92%; viability, T/C [16]: 7.18%; viability, T/C [17]: 2.59%; viability, T/C [22]: 4.9%; viability, T/C [23]: 1.48%; viability, T/C [27]: 0.69%; viability, T/C [28]: 0.04%; viability, T/C [29]: 0.12%; viability, T/C [30]: 0.11%; viability, T/C [31]: 0.11%; viability, T/C [32]: 0.09%; viability, T/C [33]: 0.33%; viability, T/C [34]: 0.1%; viability, T/C [35]: 0.12%
CCN1CCN(Cc2ccc(Nc3ncc(F)c(-c4cc(F)c5nc(C)n(C(C)C)c5c4)n3)nc2)CC1 + C=CC(=O)N1CCN(c2nc(=O)n(-c3c(C)ccnc3C(C)C)c3nc(-c4c(O)cccc4F)c(F)cc23)C(C)C1	< 3.16	< 3.16	< 3.16	< 3.16	< 3.16	16.5	15.9	15.1	18.5	17.1	16.8	14.7	15.9	19.5	17.1	17.2	19.8	19.6	18.9	21.9	viability, T/C (second compound 0.1 µM, first compound 0.00316 µM): 17.4%; viability, T/C [36]: 18.3%; viability, T/C (second compound 0.316 µM, first compound 0.00316 µM): 19.1%; viability, T/C [37]: 18.1%; viability, T/C (second compound 1 µM, first compound 0.00316 µM): 22.2%; viability, T/C [38]: 22.2%; viability, T/C (second compound 3.16 µM, first compound 0.00316 µM): 22.7%; viability, T/C [39]: 24.2%; viability, T/C [27]: 19.2%; viability, T/C (second compound 10 µM, first compound 0.00316 µM): 27.8%; viability, T/C [40]: 29.9%; viability, T/C [30]: 25%; viability, T/C [31]: 29.8%; viability, T/C [32]: 27.9%; viability, T/C [33]: 16.3%
CC(=O)OC12COC1CC(O)C1(C)C(=O)C(O)C3=C(C)C(OC(=O)C(O)C(NC(=O)OC(C)(C)C)c4ccccc4)CC(O)(C(OC(=O)c4ccccc4)C21)C3(C)C (stereo unspecified) + CNCc1ccccc1-c1csc(C(C)Nc2nc(C)nc3cc(OC)c(OC)cc23)c1	< 10	< 10	< 10	< 10	< 10	37.4	32	38.3	34.3	28	27	25.9	29.3	34.3	34.5	36	38	0.11	0.09	0.11	viability, T/C [36]: 35.7%; viability, T/C [10]: 41.8%; viability, T/C [37]: 28%; viability, T/C [16]: 30.2%; viability, T/C [38]: 29.2%; viability, T/C [22]: 33%; viability, T/C [39]: 18.7%; viability, T/C [27]: 0.1%; viability, T/C [28]: 31.5%; viability, T/C [40]: 0.14%; viability, T/C [30]: 0.09%; viability, T/C [31]: 0.1%; viability, T/C [32]: 0.13%; viability, T/C [33]: 28.4%; viability, T/C [34]: 0.21%
O=C(c1cc(Cc2n[nH]c(=O)c3ccccc23)ccc1F)N1CCN(C(=O)C2CC2)CC1	–	–	–	–	–	–	–	–	–	–	–	–	–	–	–	–	–	–	–	–	viability, T/C (compound 0.1 µM): 96.4% [middle of 5 runs]; viability, T/C (compound 0.316 µM): 92.6% [middle of 5 runs]; viability, T/C (compound 10 µM): 82% [middle of 5 runs]; IC50 (curve of compound): > 10000 nM
CN(C)C/C=C/C(=O)Nc1cc2c(Nc3ccc(F)c(Cl)c3)ncnc2cc1O[C@H]1CCOC1	–	–	–	–	–	–	–	–	–	–	–	–	–	–	–	–	–	–	–	–	viability, T/C (compound 0.000316 µM): 89.4% [middle of 5 runs]; viability, T/C (compound 0.001 µM): 78.7% [middle of 5 runs]; viability, T/C (compound 0.00316 µM): 63.7% [middle of 5 runs]; viability, T/C (compound 0.01 µM): 61.1% [middle of 5 runs]; viability, T/C (compound 0.0316 µM): 57.2% [middle of 5 runs]; viability, T/C (compound 0.1 µM): 62.2% [middle of 5 runs]; IC50 (curve of compound): > 100 nM
COc1cc(Nc2ncc3c(n2)-c2ccc(Cl)cc2C(c2c(F)cccc2OC)=NC3)ccc1C(=O)O + COc1cc2nc(C)nc(NC(C)c3cc(N)cc(C(F)(F)F)c3)c2cc1OC1CCOC1	< 31.6	< 31.6	< 31.6	< 31.6	< 31.6	52.4	44.5	44.1	47.7	41	42.3	44.1	40.2	34.7	38	36.5	38.2	34.2	32.6	36.6	viability, T/C [10]: 42.1%; viability, T/C [11]: 42.1%; viability, T/C [16]: 40.7%; viability, T/C [17]: 37.3%; viability, T/C [22]: 33.9%; viability, T/C [23]: 31.4%; viability, T/C [27]: 30.6%; viability, T/C [28]: 23%; viability, T/C [29]: 19.7%; viability, T/C [30]: 12.4%; viability, T/C [31]: 14.3%; viability, T/C [32]: 7.81%; viability, T/C [33]: 4.39%; viability, T/C [34]: 6.63%; viability, T/C [35]: 3.43%
CC1COCCN1c1cc(-c2ccnn2C)c2ccnc(-c3ccn[nH]3)c2n1 (stereo unspecified) + CNCc1ccccc1-c1csc(C(C)Nc2nc(C)nc3cc(OC)c(OC)cc23)c1	23.7	< 10	< 10	< 10	< 10	43.3	39.4	31.7	28.2	37.1	29	22.8	22.9	29.4	18.8	19	14	1.18	1.37	0.47	viability, T/C [36]: 63.1%; viability, T/C [10]: 26.8%; viability, T/C [37]: 41.5%; viability, T/C [16]: 22.6%; viability, T/C [38]: 24.9%; viability, T/C [22]: 11.4%; viability, T/C [39]: 1.36%; viability, T/C [27]: 0.45%; viability, T/C [28]: 0.62%; viability, T/C [40]: 0.73%; viability, T/C [30]: 0.11%; viability, T/C [31]: 0.25%; viability, T/C [32]: 0.12%; viability, T/C [33]: 0.14%; viability, T/C [34]: 0.17%

Reference: PubChem BioAssay AID1963862 (Molecular Pharmacology Branch, DTP, NCI, 2024)
